The assay deals with T1, Androgen Receptor (Homo sapiens, UniProt P10275).
T1 construct: endogenous in cells; host or cells: VCaP cells
T1 sequence (P10275 1-920): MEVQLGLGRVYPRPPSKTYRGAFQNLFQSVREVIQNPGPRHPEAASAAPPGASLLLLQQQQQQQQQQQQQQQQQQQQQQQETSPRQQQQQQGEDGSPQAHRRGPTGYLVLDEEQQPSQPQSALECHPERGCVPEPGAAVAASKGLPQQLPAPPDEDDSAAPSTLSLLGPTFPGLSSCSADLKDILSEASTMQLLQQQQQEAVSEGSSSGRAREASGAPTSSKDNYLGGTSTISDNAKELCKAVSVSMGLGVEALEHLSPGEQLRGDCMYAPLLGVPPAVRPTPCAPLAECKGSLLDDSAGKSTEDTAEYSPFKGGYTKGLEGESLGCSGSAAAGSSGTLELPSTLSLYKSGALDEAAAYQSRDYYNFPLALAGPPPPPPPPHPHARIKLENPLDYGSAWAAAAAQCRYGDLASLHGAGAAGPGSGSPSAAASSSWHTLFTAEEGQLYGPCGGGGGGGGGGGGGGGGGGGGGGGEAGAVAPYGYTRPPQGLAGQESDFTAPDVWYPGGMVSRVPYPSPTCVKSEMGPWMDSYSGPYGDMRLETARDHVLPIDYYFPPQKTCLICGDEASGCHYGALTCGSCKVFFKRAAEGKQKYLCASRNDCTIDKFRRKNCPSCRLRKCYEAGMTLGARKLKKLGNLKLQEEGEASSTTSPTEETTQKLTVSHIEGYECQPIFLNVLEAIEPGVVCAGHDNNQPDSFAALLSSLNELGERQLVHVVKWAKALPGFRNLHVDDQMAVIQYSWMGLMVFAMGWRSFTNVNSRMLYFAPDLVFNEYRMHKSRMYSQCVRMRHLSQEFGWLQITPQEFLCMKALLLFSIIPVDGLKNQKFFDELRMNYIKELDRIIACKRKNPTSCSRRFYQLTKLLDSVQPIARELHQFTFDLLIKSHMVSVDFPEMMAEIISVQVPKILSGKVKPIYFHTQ
The experiment in a line: Androgen Receptor ELISA assay (PathScan AR ELISA) in VCaP cells: AR degradation, Dmax and DC50. It is filed as cell-based. As for the experimental part:
1. Androgen Receptor ELISA Assay.
The protocols used with VCaP cells are described below. The androgen receptor ELISA assay was performed using PathScan AR ELISA (Cell Signaling Catalog #12850) according to the following assay steps:
VCaP cells are seeded at 30,000 cells/well at a volume of 200 μL/well in VCaP assay medium [Phenol red free RPMI (Gibco Cat #11835-030); 5% Charcoal Stripped (Dextran treated) FBS (Omega Scientific, Cat #FB-04); Pen/Strep Life Technologies (Gibco Cat #: 10378-016); 0.1 nM R1881 (Sigma, Cat #R0908) is added upon the start of the assay, not during initial plating of the cells) in Corning 3904 plates. The cells are grown for a minimum of 3 days.
First, cells are dosed with compounds diluted in 0.1% DMSO—use a polypropylene plate according to the following protocol: (1)(i) make 1000× stock plate in DMSO; (ii) 20 mM stock diluted 1/6.7 with DMSO (5 μL+28.3 μL DMSO)=3 mM into row H; (iii) perform serial dilutions in ½ log doses (10 μL of PROTAC+20 μL DMSO) from row H towards row B. Reserve row A for DMSO; (iv) 7 doses total (final concentration in this 1000× plate will be 3 mM, 1 mM, 333 μM, 111 μM, etc). (2)(i) Make 10× stock plate in media; (ii) transfer 2.5 μL of the 1000× stock to a new 10× stock plate (use 12 channel pipet, start at A (DMSO control) work thru H. When 247.5 μL of media is added to this plate, it will serve as a 10× stock; (iii) make media+1 nM R1881 for making 10× stock plate; (iv) add 247.5 μL of media with 1 nM R1881 to each well of the 10× stock plate, mix.
Then 22 μL of 10× stock is added to cells and incubated for 24 h. 1× Cell Signaling Cell lysis buffer is made (Catalogue #9803; comes with the kit)—prepare for 50 μL/well. Keep on ice. Media is aspirated, and 50 μL 1× cell lysis buffer/well is added. The cells are placed on ice for 10 minutes. The solution is mixed and transferred to PCR plate, and centrifuged at 4C for 10 minutes at 4000 rpm.
5 μL is transferred to fresh plate (use immediately or freeze −80 C); 115 μL ELISA Dilutant is added (0.15 ug/ml-0.075 ug/ml; comes with the PathScan ELISA).
Add 100 μL/well AR Elisa; cover and shake, 37 C for 2 hrs; dump, tap, wash 4×200 μL ELISA wash buffer; add 100 μL/well mouse AR detection Ab; cover and shake, 37 C for 1 hr; dump, tap, wash 4×200 μL ELISA wash buffer; add 100 μL/well anti-mouse—HRP conjugated Ab (comes with the kit); cover and shake, 37 C for 30 min; allow TMB reagent to come to room temperature; dump, tap, wash 4×200 μL Elisa wash buffer; tap; add 100 μL TMB, shake 5 min—while watching color. Add the stop reagent when light blue color develops. Add 100 μL Stop solution; shake and read at 450 nm.

[1] abbreviates: read-out: VCaP DC50; concentration that caused 50% Androgen Receptor degradation, VCaP cells.

Structures are written as SMILES. Like-named read-outs stand apart in the source and are kept apart here.

Broadly, the DC50 is the concentration at which degradation of the target reaches its halfway point. Usually Dmax stands for the greatest extent of degradation seen.

On to `CC(C)(C)[C@H](NC(=O)COCCCOCCCCCOc1ccc(N2C(=S)N(c3ccc(C#N)c(C(F)(F)F)c3)C(=O)C2(C)C)cc1)C(=O)N1C[C@H](O)C[C@H]1C(=O)NCc1ccc(Cl)cc1` [Example 14, (2S,4R)-N-[(4-chlorophenyl)methyl]-1-[(2S)-2-[2-(3-{[5-(4-{3-[4-cyano-3-(trifluoromethyl)phenyl]-5,5-dimethyl-4-oxo-2-sulfanylideneimidazolidin-1-yl}phenoxy)pentyl]oxy}propoxy)acetamido]-3,3-dimethylbutanoyl]-4-hydroxypyrrolidine-2-carboxamide], for which the DC50 under setting [1] was > 501 nM.
For `CC(C)(C)[C@H](NC(=O)COCCCOCCCCCOc1ccc(N2C(=S)N(c3ccc(C#N)c(C(F)(F)F)c3)C(=O)C2(C)C)cc1)C(=O)N1C[C@H](O)C[C@H]1C(=O)NCc1ccc(C#N)cc1` [Example 15, (2S,4R)-1-[(2S)-2-[2-(3-{[5-(4-{3-[4-cyano-3-(trifluoromethyl)phenyl]-5,5-dimethyl-4-oxo-2-sulfanylideneimidazolidin-1-yl}phenoxy)pentyl]oxy}propoxy)acetamido]-3,3-dimethylbutanoyl]-N-[(4-cyanophenyl)methyl]-4-hydroxypyrrolidine-2-carboxamide], under “VCaP, read-out: VCaP Dmax (%)”, the Dmax lay in the range of 26 to 50%. For the same compound, the DC50 under setting [1] is < 50 nM.
As for `Cc1ncsc1-c1ccc(CNC(=O)[C@@H]2C[C@@H](O)CN2C(=O)[C@@H](NC(=O)COCCOCCOCCOc2ccc(N3C(=S)N(c4ccc(C#N)c(C(F)(F)F)c4)C(=O)C3(C)C)cc2)C(C)(C)C)cc1` [Example 16, (2S,4R)-1-[(2S)-2-[2-(2-{2-[2-(4-{3-[4-cyano-3-(trifluoromethyl)phenyl]-5,5-dimethyl-4-oxo-2-sulfanylideneimidazolidin-1-yl}phenoxy)ethoxy]ethoxy}ethoxy)acetamido]-3,3-dimethylbutanoyl]-4-hydroxy-N-{[4-(4-methyl-1,3-thiazol-5-yl)phenyl]methyl}pyrrolidine-2-carboxamide], the Dmax (VCaP, read-out: VCaP Dmax (%)) lay in the range of 26 to 50%.
As to `Cc1ncsc1-c1ccc(CNC(=O)[C@@H]2C[C@@H](O)CN2C(=O)[C@@H](NC(=O)COCCCCOCCCCOc2ccc(N3C(=S)N(c4ccc(C#N)c(C(F)(F)F)c4)C(=O)C3(C)C)cc2F)C(C)(C)C)cc1` [Example 26, (2S,4R)-1-[(2S)-2-(2-{4-[4-(4-{3-[4-cyano-3-(trifluoromethyl)phenyl]-5,5-dimethyl-4-oxo-2-sulfanylideneimidazolidin-1-yl}-2-fluorophenoxy)butoxy]butoxy}acetamido)-3,3-dimethylbutanoyl]-4-hydroxy-N-{[4-(4-methyl-1,3-thiazol-5-yl)phenyl]methyl}pyrrolidine-2-carboxamide], the Dmax (VCaP, read-out: VCaP Dmax (%)) fell in the range of 51 to 70%. Also, under setting [1], the DC50 was < 50 nM.
The corresponding values for `CC(C)(C)[C@H](NC(=O)COCCCOCCCCOc1ccc(N2C(=S)N(c3ccc(C#N)c(C(F)(F)F)c3)C(=O)C2(C)C)cc1)C(=O)N1C[C@H](O)C[C@H]1C(=O)NCc1ccc(-c2cncs2)cc1` [Example 33, (2S,4R)-1-[(2S)-2-(2-{3-[4-(4-{3-[4-cyano-3-(trifluoromethyl)phenyl]-5,5-dimethyl-4-oxo-2-sulfanylideneimidazolidin-1-yl}phenoxy)butoxy]propoxy}acetamido)-3,3-dimethylbutanoyl]-4-hydroxy-N-{[4-(1,3-thiazol-5-yl)phenyl]methyl}pyrrolidine-2-carboxamide] are 51 to 70% and < 50 nM.
`CC(C)(C)[C@H](NC(=O)COCCCOCCCCOc1ccc(N2C(=S)N(c3ccc(C#N)c(C(F)(F)F)c3)C(=O)C2(C)C)cc1)C(=O)N1C[C@H](O)C[C@H]1C(=O)NCc1ccc(-c2cnco2)cc1` [Example 34, (2S,4R)-1-[(2S)-2-(2-{3-[4-(4-{3-[4-cyano-3-(trifluoromethyl)phenyl]-5,5-dimethyl-4-oxo-2-sulfanylideneimidazolidin-1-yl}phenoxy)butoxy]propoxy}acetamido)-3,3-dimethylbutanoyl]-4-hydroxy-N-{[4-(l,3-oxazol-5-yl)phenyl]methyl}pyrrolidine-2-carboxamide]: the Dmax (VCaP, read-out: VCaP Dmax (%)) was > 71%. Besides, the DC50 under setting [1] is < 50 nM.
The matching figures for `Cc1ncoc1-c1ccc(CNC(=O)[C@@H]2C[C@@H](O)CN2C(=O)[C@@H](NC(=O)COCCCOCCCCOc2ccc(N3C(=S)N(c4ccc(C#N)c(C(F)(F)F)c4)C(=O)C3(C)C)cc2)C(C)(C)C)cc1` [Example 35, (2S,4R)-1-[(2S)-2-(2-{3-[4-(4-{3-[4-cyano-3-(trifluoromethyl)phenyl]-5,5-dimethyl-4-oxo-2-sulfanylideneimidazolidin-1-yl}phenoxy)butoxy]propoxy}acetamido)-3,3-dimethylbutanoyl]-4-hydroxy-N-{[4-(4-methyl-1,3-oxazol-5-yl)phenyl]methyl}pyrrolidine-2-carboxamide]: 51 to 70% and < 50 nM.
The matching figures for `CC(C)[C@H](NC(=O)COCCCOCCCCOc1ccc(N2C(=S)N(c3ccc(C#N)c(Cl)c3)C(=O)C2(C)C)cc1)C(=O)N1C[C@H](O)C[C@H]1C(=O)NCc1ccc(-c2cncs2)cc1` [Example 36]: 26 to 50% and < 50 nM.
Take `Cc1ncsc1-c1ccc(CNC(=O)[C@@H]2C[C@@H](O)CN2C(=O)[C@@H](NC(=O)COCCCOCCCCOc2ccc(N3C(=S)N(c4cnc(C#N)c(Cl)c4)C(=O)C3(C)C)cc2)C(C)(C)C)cc1` [Example 37, (2S,4R)-1-[(2S)-2-{2-[3-(4-{4-[3-(5-chloro-6-cyanopyridin-3-yl)-5,5-dimethyl-4-oxo-2-sulfanylideneimidazolidin-1-yl]phenoxy}butoxy)propoxy]acetamido}-3,3-dimethylbutanoyl]-4-hydroxy-N-{[4-(4-methyl-1,3-thiazol-5-yl)phenyl]methyl}pyrrolidine-2-carboxamide]: where the note is “VCaP, highest percentage of Androgen Receptor degradation observed, VCaP cells; read-out: VCaP Dmax (%)”, the Dmax was > 71%. Further, the DC50 (concentration that caused 50% Androgen Receptor degradation, VCaP cells; read-out: VCaP DC50) is < 50 nM.
With `Cc1ncoc1-c1ccc(CNC(=O)[C@@H]2C[C@@H](O)CN2C(=O)[C@@H](NC(=O)COCCCOCCCCOc2ccc(N3C(=S)N(c4ccc(C#N)c(Cl)c4)C(=O)C3(C)C)cc2)C(C)(C)C)cc1` [Example 38, (2S,4R)-1-[(2S)-2-{2-[3-(4-{4-[3-(3-chloro-4-cyanophenyl)-5,5-dimethyl-4-oxo-2-sulfanylideneimidazolidin-1-yl]phenoxy}butoxy)propoxy]acetamido}-3,3-dimethylbutanoyl]-4-hydroxy-N-{[4-(4-methyl-1,3-oxazol-5-yl)phenyl]methyl}pyrrolidine-2-carboxamide], under “VCaP, read-out: VCaP Dmax (%)”, the Dmax was in the range of 51 to 70%. The DC50 under setting [1] is < 50 nM.

(Values after patent publication US11427548B2 (Arvinas Operations, Inc., priority 2015, dated 2022).)
